Measurements: ChEMBL document CHEMBL5465560, “Selectivity Literature for EUbOPEN Chemogenomic Library” (2024)

Legend:
[1] = target: Cyclin-dependent kinase 15 (Homo sapiens) (UniProt Q96Q40); assay: Selectivity interaction (KinomeScan (DiscoverX)) EUB0000229b CDK15; settings: at 10 µM
[2] = target: T1, Serine/threonine-protein kinase NLK (Homo sapiens) (UniProt Q9UBE8); assay: Selectivity interaction (ProQinase) EUB0000171b NLK
T1 sequence (whole entry): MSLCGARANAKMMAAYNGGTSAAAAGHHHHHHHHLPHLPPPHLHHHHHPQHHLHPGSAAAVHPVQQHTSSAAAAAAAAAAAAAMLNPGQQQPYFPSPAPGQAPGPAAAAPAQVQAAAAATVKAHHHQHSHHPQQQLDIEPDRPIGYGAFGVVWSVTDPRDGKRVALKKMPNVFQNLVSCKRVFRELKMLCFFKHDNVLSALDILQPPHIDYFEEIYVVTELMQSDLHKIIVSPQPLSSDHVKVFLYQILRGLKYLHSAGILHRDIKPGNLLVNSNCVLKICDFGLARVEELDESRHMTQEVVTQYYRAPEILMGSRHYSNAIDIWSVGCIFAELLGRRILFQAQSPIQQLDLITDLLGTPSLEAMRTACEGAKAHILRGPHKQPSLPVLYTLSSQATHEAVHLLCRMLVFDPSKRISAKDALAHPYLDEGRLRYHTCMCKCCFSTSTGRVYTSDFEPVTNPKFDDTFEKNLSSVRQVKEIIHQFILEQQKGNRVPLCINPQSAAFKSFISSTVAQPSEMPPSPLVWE

[3] = target: Ribosomal protein S6 kinase alpha-5 (Homo sapiens) (UniProt O75582); assay: Selectivity interaction (ProQinase) EUB0000171b RPS6KA5
[4] = target: T2, Serine/threonine-protein kinase TAO3 (Homo sapiens) (UniProt Q9H2K8); assay: Selectivity interaction (KinomeScan (DiscoverX)) EUB0001049a TAOK3; settings: at 1 µM
T2 sequence (whole entry): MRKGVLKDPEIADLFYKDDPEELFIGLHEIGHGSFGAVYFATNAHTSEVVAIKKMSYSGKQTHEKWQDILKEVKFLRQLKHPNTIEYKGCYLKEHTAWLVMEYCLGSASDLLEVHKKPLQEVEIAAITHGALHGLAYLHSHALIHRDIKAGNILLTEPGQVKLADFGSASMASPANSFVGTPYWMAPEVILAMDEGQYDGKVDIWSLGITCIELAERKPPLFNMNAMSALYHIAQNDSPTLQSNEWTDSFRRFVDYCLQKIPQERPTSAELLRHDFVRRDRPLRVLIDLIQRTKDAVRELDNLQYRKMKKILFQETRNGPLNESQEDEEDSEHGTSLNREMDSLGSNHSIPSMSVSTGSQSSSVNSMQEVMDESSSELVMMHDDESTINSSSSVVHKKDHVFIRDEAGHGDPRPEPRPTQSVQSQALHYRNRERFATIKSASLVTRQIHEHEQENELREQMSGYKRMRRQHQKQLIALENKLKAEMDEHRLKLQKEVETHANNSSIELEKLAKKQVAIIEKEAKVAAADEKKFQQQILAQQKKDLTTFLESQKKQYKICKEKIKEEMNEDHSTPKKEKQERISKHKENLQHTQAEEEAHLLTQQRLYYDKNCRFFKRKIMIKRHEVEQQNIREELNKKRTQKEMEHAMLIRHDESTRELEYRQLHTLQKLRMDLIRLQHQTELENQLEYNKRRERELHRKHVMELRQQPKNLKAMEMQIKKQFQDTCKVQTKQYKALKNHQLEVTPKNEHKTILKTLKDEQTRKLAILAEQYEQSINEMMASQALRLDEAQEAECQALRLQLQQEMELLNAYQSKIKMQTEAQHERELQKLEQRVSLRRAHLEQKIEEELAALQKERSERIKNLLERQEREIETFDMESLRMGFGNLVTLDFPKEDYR

[5] = target: T3, Protein kinase C iota type (Homo sapiens) (UniProt P41743); assay: Selectivity interaction (KinomeScan (DiscoverX)) EUB0001619a PRKCI; settings: at 1 µM
T3 sequence (whole entry): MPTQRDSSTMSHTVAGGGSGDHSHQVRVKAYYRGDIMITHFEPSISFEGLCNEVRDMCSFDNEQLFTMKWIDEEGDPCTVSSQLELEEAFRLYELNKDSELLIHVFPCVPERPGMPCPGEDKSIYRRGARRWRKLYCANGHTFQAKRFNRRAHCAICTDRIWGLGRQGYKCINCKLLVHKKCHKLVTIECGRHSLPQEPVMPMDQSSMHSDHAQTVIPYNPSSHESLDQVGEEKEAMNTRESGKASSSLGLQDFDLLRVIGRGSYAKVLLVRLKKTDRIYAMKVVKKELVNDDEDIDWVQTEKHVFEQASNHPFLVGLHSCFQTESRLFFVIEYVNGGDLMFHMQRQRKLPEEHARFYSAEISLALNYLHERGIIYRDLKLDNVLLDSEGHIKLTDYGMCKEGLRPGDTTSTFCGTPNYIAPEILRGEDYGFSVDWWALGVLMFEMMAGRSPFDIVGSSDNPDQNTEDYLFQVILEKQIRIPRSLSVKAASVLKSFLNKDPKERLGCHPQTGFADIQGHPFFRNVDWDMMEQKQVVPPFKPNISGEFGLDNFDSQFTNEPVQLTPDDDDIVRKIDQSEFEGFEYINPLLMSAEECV

Sequence of Ribosomal protein S6 kinase alpha-5 (Homo sapiens) (O75582 whole entry, looked up): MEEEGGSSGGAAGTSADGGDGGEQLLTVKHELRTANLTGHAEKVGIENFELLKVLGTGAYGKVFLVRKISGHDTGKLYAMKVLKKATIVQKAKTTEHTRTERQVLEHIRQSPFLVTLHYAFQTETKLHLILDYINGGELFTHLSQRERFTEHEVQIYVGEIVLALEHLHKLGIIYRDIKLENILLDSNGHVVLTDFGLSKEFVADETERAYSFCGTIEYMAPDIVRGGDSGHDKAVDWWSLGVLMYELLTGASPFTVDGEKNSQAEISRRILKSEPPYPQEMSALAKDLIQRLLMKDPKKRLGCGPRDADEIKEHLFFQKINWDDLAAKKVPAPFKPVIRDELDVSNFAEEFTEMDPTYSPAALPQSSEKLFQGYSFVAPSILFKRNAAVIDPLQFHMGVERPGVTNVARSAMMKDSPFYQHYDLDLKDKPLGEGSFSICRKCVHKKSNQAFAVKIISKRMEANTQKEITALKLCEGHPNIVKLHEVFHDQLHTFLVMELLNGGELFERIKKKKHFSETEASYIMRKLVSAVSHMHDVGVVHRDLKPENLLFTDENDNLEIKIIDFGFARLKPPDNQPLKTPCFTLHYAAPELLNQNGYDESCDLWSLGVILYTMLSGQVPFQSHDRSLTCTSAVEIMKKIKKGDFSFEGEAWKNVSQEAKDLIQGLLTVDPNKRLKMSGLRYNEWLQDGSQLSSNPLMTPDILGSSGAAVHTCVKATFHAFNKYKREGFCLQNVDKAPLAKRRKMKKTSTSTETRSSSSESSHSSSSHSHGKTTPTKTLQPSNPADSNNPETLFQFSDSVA
Sequence of Cyclin-dependent kinase 15 (Homo sapiens) (Q96Q40 whole entry): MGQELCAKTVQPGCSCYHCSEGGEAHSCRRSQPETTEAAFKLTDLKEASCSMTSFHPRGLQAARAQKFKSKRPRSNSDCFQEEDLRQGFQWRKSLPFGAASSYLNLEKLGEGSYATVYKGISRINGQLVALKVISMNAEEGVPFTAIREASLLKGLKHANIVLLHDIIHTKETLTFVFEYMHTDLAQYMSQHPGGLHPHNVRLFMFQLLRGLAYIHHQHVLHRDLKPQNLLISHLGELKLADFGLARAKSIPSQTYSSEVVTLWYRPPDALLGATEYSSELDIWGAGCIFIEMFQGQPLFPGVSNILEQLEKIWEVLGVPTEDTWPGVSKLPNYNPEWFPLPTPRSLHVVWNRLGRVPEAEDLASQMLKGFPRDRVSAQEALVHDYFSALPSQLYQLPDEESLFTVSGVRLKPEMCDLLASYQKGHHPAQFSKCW

Q: How did the % binding [1] turn out when `COc1cc(N(C)c2ccnc3ccc(C(F)(F)F)cc23)cc(OC)c1OC` was run?
A: 85%

Q: `C=CC(=O)Nc1cccc(C(=O)Nc2ccc(Nc3cc(-c4[nH]c(SC)nc4C)ccn3)cc2)c1` was tested. Which % of control ([2]; at 1 µM) did it give?
A: 86%

Q: What about the % of control ([2]; at 5 µM) of the same compound?
A: 37%

Q: What about the % of control ([3]; at 1 µM) of the same compound?
A: 94%

Q: And the % of control ([3]; at 5 µM)?
A: 87%

Q: `COc1cc(Nc2nc(C)cc(-c3cnn4nc(OC)ccc34)n2)cc(C(F)(F)F)c1` was tested. Which % of control [4] did it give?
A: 75%

Q: Which % of control [5] does the source give for `N#Cc1cccc(-c2c[nH]c3ncnc(N4CCOCC4)c23)c1` here?
A: 100%
